Experimental data from ChEMBL document CHEMBL5696442, “Discovery of type II inhibitors of TGFβ-activated kinase 1 (TAK1) and mitogen-activated protein kinase kinase kinase kinase 2 (MAP4K2)” (J Med Chem, 2015).
Calls of active or inactive are those of the source. The calls are words filed in the database; no cut-off is given here.

Assays:
[1] = target: Serine/threonine-protein kinase 3/4 (Homo sapiens) (UniProt Q13043+Q13188); assay: Inhibition of MST1/2 K2 labeling site in human Huh-7 cells at 10 uM by KiNativ Profiling analysis relative to control; format: cell-based
[2] = target: Serine/threonine-protein kinase pim-2 (Homo sapiens) (UniProt Q9P1W9); assay: Inhibition of PIM2 (unknown origin) at 10 uM by Ambit Kinomescan binding assay
[3] = target: Receptor-interacting serine/threonine-protein kinase 1 (Homo sapiens) (UniProt Q13546); assay: Inhibition of RIPK1 (unknown origin) at 10 uM by Ambit Kinomescan binding assay relative to control; values are per cent of control
[4] = target: Phosphatidylinositol 4-kinase alpha (Homo sapiens) (UniProt P42356); assay: Inhibition of PIK4CA ATP labeling site in human Huh-7 cells at 1 uM by KiNativ Profiling analysis relative to control; format: cell-based
[5] = target: Mitogen-activated protein kinase kinase kinase kinase 4 (Homo sapiens, UniProt O95819); assay: Inhibition of ZC1/HGK K1 labeling site harbouring TGQLAAIKVMDVTEDEEEEIKLEINMLKK in human Huh-7 cells at 1 uM by KiNativ Profiling analysis relative to control; format: cell-based
Sequence of Mitogen-activated protein kinase kinase kinase kinase 4 (O95819 2-1239 limits assumed): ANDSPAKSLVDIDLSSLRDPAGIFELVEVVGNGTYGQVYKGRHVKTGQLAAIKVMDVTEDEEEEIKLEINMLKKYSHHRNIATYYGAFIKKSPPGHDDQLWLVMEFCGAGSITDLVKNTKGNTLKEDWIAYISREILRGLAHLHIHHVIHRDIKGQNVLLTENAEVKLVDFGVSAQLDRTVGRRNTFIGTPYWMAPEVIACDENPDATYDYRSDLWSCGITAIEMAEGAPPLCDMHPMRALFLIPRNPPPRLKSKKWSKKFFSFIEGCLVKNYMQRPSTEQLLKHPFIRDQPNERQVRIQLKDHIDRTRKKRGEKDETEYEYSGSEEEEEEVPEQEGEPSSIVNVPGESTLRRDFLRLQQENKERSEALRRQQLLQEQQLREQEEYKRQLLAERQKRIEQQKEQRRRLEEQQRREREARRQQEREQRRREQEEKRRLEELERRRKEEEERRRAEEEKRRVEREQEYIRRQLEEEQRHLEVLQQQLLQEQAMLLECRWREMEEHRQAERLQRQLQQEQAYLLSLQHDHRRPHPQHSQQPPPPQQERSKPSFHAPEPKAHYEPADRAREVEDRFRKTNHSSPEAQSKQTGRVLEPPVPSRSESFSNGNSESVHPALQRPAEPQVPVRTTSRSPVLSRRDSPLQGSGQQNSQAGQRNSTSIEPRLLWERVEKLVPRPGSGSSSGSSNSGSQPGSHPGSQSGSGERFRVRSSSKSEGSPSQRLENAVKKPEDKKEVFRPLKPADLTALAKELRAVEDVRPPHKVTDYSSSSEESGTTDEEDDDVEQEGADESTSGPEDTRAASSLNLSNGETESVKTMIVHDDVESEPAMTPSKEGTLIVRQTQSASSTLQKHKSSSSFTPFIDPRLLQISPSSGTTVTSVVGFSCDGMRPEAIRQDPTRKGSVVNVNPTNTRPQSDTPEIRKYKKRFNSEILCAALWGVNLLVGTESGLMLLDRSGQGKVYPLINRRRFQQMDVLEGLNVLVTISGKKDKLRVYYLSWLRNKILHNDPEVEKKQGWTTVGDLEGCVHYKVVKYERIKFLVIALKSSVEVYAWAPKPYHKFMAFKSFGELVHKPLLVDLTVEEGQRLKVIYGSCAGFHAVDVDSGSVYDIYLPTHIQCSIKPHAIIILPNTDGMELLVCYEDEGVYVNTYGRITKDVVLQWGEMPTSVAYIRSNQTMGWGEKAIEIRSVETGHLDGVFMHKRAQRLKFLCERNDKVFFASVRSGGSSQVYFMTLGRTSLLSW

[6] = target: Interferon-induced, double-stranded RNA-activated protein kinase (Homo sapiens) (UniProt P19525); assay: Inhibition of PKR K2 labeling site in human Huh-7 cells at 1 uM by KiNativ Profiling analysis relative to control; format: cell-based
[7] = target: Tyrosine-protein kinase JAK2 (Homo sapiens) (UniProt O60674); assay: Inhibition of JAK2 JH1 catalytic domain (unknown origin) at 10 uM by Ambit Kinomescan binding assay relative to control
Sequence of Tyrosine-protein kinase JAK2 (Homo sapiens) (O60674 whole entry, the tested form may be a part): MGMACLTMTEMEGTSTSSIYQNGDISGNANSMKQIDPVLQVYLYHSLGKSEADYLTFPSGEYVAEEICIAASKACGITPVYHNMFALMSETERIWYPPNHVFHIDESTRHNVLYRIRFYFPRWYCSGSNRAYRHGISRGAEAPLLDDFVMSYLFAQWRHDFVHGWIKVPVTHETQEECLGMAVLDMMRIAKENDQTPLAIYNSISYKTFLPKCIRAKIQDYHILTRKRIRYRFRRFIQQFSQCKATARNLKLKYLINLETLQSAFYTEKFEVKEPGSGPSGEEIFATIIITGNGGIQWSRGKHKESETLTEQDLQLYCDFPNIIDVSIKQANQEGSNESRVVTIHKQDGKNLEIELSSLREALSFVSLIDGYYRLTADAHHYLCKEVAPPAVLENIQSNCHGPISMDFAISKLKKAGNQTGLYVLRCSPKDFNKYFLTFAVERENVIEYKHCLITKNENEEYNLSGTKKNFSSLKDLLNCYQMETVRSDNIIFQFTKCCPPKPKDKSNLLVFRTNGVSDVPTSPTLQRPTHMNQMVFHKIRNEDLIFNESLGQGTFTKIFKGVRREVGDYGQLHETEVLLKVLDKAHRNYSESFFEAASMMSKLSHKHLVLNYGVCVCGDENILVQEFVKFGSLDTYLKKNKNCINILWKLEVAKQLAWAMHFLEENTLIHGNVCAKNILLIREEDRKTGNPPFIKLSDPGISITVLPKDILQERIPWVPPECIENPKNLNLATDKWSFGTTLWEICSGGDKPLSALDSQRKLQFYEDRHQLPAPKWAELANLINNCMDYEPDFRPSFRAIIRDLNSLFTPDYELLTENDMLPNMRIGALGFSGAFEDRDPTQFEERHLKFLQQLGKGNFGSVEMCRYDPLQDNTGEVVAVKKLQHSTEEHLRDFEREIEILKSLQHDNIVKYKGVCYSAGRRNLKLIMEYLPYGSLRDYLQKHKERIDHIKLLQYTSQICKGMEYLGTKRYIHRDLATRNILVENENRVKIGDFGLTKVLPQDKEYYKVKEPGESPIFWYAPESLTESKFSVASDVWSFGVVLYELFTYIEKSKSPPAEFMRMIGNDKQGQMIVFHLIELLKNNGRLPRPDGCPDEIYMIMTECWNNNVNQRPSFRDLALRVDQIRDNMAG

[8] = target: Serine/threonine-protein kinase 4 (Homo sapiens) (UniProt Q13043); assay: Inhibition of MST1 Lys1 labeling site harbouring AIHKETGQIVAIKQVPVESDLQEIIK in human Huh-7 cells at 1 uM by KiNativ Profiling analysis relative to control
[9] = target: Serine/threonine-protein kinase B-raf (Homo sapiens, UniProt P15056); assay: Inhibition of BRAF Lys2 labeling site in human Huh-7 cell lysate at 1 uM by KiNativ Profiling analysis relative to control; format: subcellular
[10] = target: Serine/threonine-protein kinase 24 (Homo sapiens) (UniProt Q9Y6E0); assay: Inhibition of MST3 Lys2 labeling site harbouring IHRDIKAANVLLSEHGEVK in human Huh-7 cells at 1 uM by KiNativ Profiling analysis relative to control; format: cell-based
[11] = target: Misshapen-like kinase 1 (Homo sapiens) (UniProt Q8N4C8); assay: Inhibition of ZC3/MINK Lys2 labeling site in human Huh-7 cells at 1 uM by KiNativ Profiling analysis relative to control; format: cell-based
Sequence of Misshapen-like kinase 1 (Homo sapiens) (Q8N4C8 whole entry, looked up): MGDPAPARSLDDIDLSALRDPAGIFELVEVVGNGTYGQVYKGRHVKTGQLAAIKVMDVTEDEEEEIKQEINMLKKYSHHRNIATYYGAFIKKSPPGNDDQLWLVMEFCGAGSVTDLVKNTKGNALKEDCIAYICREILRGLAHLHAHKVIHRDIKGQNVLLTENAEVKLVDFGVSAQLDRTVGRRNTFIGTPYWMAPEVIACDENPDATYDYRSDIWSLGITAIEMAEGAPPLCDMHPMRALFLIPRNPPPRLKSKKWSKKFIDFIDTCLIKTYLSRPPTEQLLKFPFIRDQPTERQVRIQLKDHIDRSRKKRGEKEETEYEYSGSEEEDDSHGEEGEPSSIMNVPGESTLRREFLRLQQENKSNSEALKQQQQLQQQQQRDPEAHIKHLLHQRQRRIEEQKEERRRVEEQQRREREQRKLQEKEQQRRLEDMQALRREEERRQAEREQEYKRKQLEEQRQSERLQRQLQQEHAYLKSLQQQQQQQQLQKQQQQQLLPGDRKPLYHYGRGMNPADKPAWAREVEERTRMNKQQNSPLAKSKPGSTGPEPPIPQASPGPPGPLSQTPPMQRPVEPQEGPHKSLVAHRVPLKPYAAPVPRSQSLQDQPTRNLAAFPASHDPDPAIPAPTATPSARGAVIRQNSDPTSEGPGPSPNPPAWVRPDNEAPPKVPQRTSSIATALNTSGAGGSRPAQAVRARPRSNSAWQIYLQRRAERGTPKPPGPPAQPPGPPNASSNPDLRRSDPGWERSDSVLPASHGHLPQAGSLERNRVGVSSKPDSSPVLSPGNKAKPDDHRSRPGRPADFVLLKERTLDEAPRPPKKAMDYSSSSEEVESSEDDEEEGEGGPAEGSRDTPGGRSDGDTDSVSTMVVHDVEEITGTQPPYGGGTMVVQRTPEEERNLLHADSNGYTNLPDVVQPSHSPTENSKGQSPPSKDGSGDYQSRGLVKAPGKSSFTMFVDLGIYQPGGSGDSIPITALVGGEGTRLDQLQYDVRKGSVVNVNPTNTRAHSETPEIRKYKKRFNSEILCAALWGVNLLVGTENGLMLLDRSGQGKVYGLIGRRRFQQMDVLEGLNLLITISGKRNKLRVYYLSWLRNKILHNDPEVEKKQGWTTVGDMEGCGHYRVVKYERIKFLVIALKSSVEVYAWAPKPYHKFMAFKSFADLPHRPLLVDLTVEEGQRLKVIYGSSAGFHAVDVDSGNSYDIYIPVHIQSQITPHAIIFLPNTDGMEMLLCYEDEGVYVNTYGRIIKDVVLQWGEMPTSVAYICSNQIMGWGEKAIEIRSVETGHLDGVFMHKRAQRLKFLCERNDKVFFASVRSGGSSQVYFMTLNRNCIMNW

[12] = target: Mitogen-activated protein kinase kinase kinase 1 (Homo sapiens) (UniProt Q13233); assay: Inhibition of MAP3K1 Lys2 labeling site in human Huh-7 cell lysate at 1 uM by KiNativ Profiling analysis relative to control; format: subcellular
[13] = target: Rho-associated protein kinase 2 (Homo sapiens) (UniProt O75116); assay: Inhibition of ROCK2 Lys2 labeling site in human Huh-7 cells at 1 uM by KiNativ Profiling analysis relative to control; format: cell-based
Sequence of Rho-associated protein kinase 2 (Homo sapiens) (O75116 whole entry, looked up): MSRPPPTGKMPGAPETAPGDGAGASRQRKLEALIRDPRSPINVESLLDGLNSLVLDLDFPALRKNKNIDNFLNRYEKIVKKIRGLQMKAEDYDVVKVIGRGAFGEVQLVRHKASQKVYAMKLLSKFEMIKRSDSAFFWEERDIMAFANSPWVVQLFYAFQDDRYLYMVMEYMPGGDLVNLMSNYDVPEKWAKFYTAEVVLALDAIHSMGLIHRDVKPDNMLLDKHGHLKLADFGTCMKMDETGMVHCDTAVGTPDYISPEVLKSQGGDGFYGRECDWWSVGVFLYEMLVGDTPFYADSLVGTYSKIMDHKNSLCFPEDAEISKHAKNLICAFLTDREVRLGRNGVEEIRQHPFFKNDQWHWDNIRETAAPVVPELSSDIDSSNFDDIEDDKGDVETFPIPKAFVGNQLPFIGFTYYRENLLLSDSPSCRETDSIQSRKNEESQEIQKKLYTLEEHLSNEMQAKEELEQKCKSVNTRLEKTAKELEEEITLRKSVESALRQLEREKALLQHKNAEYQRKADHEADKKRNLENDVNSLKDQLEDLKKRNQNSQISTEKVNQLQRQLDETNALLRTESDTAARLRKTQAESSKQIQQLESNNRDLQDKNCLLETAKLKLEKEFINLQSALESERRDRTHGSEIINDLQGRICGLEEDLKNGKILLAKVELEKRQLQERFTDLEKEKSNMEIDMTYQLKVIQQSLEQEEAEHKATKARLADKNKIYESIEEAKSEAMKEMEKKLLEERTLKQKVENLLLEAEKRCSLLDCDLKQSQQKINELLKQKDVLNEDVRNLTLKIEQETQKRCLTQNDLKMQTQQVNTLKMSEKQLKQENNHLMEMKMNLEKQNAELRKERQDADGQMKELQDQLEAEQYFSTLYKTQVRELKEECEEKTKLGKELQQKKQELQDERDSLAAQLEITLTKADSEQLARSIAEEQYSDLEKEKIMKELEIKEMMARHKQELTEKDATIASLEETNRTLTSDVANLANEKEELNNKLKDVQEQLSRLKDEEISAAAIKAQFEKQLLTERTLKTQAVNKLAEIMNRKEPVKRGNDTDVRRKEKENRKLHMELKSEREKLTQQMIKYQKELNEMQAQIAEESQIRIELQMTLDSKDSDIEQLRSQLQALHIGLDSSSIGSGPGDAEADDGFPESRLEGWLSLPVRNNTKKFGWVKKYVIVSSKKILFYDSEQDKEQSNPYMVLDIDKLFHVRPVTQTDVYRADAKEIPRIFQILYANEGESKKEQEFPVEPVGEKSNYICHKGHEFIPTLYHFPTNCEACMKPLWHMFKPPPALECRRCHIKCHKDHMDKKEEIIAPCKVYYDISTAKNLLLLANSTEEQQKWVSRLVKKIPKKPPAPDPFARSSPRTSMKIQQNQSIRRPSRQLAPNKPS

[14] = target: Calcium/calmodulin-dependent protein kinase type II subunit gamma (Homo sapiens) (UniProt Q13555); assay: Inhibition of CaMK2g Lys1 labeling site harbouring KTSTQEYAAKIINTK in human Huh-7 cell lysate at 1 uM by KiNativ Profiling analysis relative to control; format: subcellular
[15] = target: DNA-PK/Ku70/Ku85 (Homo sapiens) (UniProt P78527+P12956+P13010); assay: Inhibition of DNAPK ATP labeling site harbouring GHDEREHPFLVKGGEDLRQDQR in human A-375 cells at 0.05 uM by KiNativ Profiling analysis relative to control; format: cell-based
[16] = target: Serine/threonine-protein kinase 17A (Homo sapiens) (UniProt Q9UEE5); assay: Inhibition of DRAK1 (unknown origin) at 1 uM by Ambit Kinomescan binding assay relative to control; values are per cent of control
[17] = target: 5'-AMP-activated protein kinase catalytic subunit alpha-1 (Homo sapiens) (UniProt Q13131); assay: Inhibition of AMPKa1 Lys2 labeling site in human A-375 cells at 0.05 uM by KiNativ Profiling analysis relative to control; format: cell-based
[18] = target: Insulin-like growth factor 1 receptor (Homo sapiens) (UniProt P08069); assay: Inhibition of IGF1R (unknown origin) at 1 uM by Ambit Kinomescan binding assay relative to control; values are per cent of control
[19] = target: T1, Phosphatidylinositol 4,5-bisphosphate 3-kinase catalytic subunit delta isoform (Homo sapiens) (UniProt O00329); assay: Inhibition of PIK3CD ATP labeling site in human A-375 cells at 5 uM by KiNativ Profiling analysis relative to control; format: cell-based
T1 sequence (whole entry): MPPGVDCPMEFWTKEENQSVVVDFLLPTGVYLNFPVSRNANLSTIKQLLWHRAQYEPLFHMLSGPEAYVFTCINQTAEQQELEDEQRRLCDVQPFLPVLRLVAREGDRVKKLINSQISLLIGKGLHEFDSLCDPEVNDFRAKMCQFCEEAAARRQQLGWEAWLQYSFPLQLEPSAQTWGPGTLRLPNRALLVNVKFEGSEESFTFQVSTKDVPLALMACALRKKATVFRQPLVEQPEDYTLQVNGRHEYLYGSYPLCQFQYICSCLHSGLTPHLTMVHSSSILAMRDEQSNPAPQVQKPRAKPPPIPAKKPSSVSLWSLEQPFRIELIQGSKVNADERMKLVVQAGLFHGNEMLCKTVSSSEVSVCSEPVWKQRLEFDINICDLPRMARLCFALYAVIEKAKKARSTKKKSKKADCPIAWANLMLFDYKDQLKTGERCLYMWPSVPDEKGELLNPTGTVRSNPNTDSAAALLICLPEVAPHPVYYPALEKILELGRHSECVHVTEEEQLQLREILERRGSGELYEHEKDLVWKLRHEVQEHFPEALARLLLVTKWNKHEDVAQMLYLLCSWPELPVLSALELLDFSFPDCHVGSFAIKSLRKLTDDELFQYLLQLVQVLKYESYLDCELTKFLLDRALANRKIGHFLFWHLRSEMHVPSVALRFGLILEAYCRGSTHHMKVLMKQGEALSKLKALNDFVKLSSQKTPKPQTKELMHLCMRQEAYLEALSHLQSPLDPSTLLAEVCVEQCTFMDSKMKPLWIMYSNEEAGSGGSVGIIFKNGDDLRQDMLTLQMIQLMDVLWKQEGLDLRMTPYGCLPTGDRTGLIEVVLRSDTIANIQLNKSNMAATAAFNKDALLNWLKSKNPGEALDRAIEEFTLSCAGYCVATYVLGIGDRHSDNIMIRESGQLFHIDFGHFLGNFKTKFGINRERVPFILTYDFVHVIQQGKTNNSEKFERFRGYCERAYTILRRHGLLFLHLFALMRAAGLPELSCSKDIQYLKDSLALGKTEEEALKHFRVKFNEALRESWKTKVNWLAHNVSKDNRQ

With `CCN1CCN(Cc2ccc(NC(=O)c3ccc(C)c(Oc4ccnc5[nH]ccc45)c3)cc2C(F)(F)F)CC1` the inhibition [1] was -9.8%, the inhibition [2] was “inactive” and the residual activity [3] was 0%. For the same compound, the inhibition [4] was 3.5%, the inhibition [5] was 19.2% and the inhibition [6] was 4%. For the same compound, the inhibition [7] was 11%.
`CNc1cc(Oc2cc(C(=O)Nc3cc(N4CCN(C)CC4)cc(C(F)(F)F)c3)ccc2C)ncn1` showed an inhibition [8] of 9.9%, an inhibition [9] of -1.4% and an inhibition [10] of 5%. The inhibition [11] was 9.7%, the inhibition [12] was -2.3% and the inhibition [13] was -1%. It also gave an inhibition [14] of 6.9%.
In the case of `CCN1CCN(Cc2ccc(NC(=O)c3ccc(C)c(/C=C/c4cnc5[nH]ccc5c4OC)c3)cc2C(F)(F)F)CC1`, the inhibition [15] is reported as -9.6%, the residual activity [16] is reported as 52% and the inhibition [17] is reported as 7.3%. The residual activity [18] was 100% and the inhibition [19] was 21.3%.
